{"source": "patent US20150086530A1", "about": "“DOSING REGIMENS FOR THE TREATMENT OF POMPE DISEASE” (Amicus Therapeutics, Inc., priority 2012, published 2015)", "key": {"GAA [1]": {"biological_target": "T1, GAA (Homo sapiens, UniProt P10253)", "experiment": "Total rhGAA protein in plasma by Western blot in Pompe patients", "format": "in vivo", "set-up": "purchased Genzyme Corporation", "settings": "Cohorts 1 and 2; 50 mg and 100 mg AT2220", "description": "Concentrations of 1-deoxynojirimycin hydrochloride in blood samples will be measured in plasma using a validated LC-MS/MS assay. GAA activity in plasma will be determined by a validated assay measuring enzyme activity using 4-MUG, with and without Con A. GAA protein levels will be measured by Western blotting using anti-human GAA antibody.\nThe study was conducted essentially according to the methods described in Example 1. Cohort 1 comprised 4 subjects. Cohort 2 comprised 6 subjects. Each subject received alglucosidase alfa alone as an intravenous infusion in Period 1 and a single 50 mg dose (Cohort 1) or 100 mg (Cohort 2) of 1-deoxynojirimycin hydrochloride one hour before initiation of an intravenous infusion of alglucosidase alfa in Period 2. The genotype, including nucleotide and amino acid changes, for each subject (where available) is shown below: […]"}, "GAA [2]": {"biological_target": "T1, GAA", "experiment": "GAA enzyme activity in muscle biopsies (Day 3 or 7) of Pompe patients", "format": "in vivo", "set-up": "tissue Genzyme Corporation; host or cells: skeletal muscle biopsies and WBC (PBMC) of Pompe patients after infusion of alglucosidase alfa (Myozyme/Lumizyme)", "settings": "for increase in muscle rhGAA activity relative to rhGAA alone, individual patients: Day 7 biopsies", "text": "On Day 7, subjects will have the following assessments performed: adverse event assessment, concomitant medications, physical exam, vital signs, clinical laboratory tests (including creatine kinase, LDH (LDH-5), alkaline phosphatase, AST, ALT), Hex4 and muscle strength tests. A muscle biopsy will be collected from which GAA enzyme activity will be determined. A blood sample for plasma and WBC GAA enzyme level determinations will also be collected.\nA muscle biopsy will also be collected from which GAA enzyme activity and 1-deoxynojirimycin hydrochloride levels will be determined, on Day 3.\nGAA enzyme activity will be examined in muscle biopsy samples. One piece of muscle tissue will be removed as described in Table 1. GAA activity in muscle will be determined by a validated assay measuring enzyme activity using 4-MUG, with and without Con A. GAA protein levels will be measured by Western blotting using anti-human GAA antibody. 1-deoxynojirimycin hydrochloride concentrations in muscle samples collected in Period 2 will be determined using a validated LC-MS/MS assay.\nAnother objective of the study was to assess the effects of various doses of 1-deoxynojirimycin hydrochloride on the GAA activity. This was evaluated by measuring the GAA enzyme activity and protein levels in skeletal muscle at Day 3 and/or Day 7 following a single intravenous infusion with alglucosidase alfa alone and after pre-administration of single ascending oral doses of 1-deoxynojirimycin hydrochloride.\nThe study enrolled male and female patients who had been on a stable dose and regimen of ERT for at least three months. All patients were given a regularly scheduled ERT infusion. One hour prior to the initiation of the next ERT infusion, patients received a single oral dose of AT2220. Plasma rhGAA activity and protein levels were evaluated during each infusion. Each patient underwent muscle biopsies three or seven days after each infusion to measure tissue GAA enzyme activity with and without the chaperone, as well as to measure the level of AT2220 in the muscle."}, "[3]": {"experiment": "Safety assessment in Pompe patients (adverse events, urine Hex4, CPK, ALT/AST, muscle strength)", "format": "in vivo, human", "settings": "for Adverse event: Intensity / Adverse event: Relation to Study Drug? / Adverse event: Was Event Serious?: per adverse event", "text": "Dose escalation to the next dose level of 1-deoxynojirimycin hydrochloride may proceed following review of safety and tolerability data from the previous dose level group(s). Safety data reviewed will include adverse events (including infusion reactions), clinical laboratory tests (including creatine kinase, LDH (LDH-5), alkaline phosphatase, AST, ALT), Hex4, 12-Lead ECGs, physical examinations, muscle strength tests and vital signs.\nSafety parameters will be assessed by review of changes in physical exam findings, vital signs, ECG changes over time, clinical labs, Hex4 and adverse events.\nBlood samples for clinical laboratory tests (hematology, serum chemistry) and urinalyses will be collected according to the schedule in Table 1. • Hematology tests include total hemoglobin, hematocrit, erythrocyte, platelet and leukocyte counts with differential. • Coagulation (screening only) includes INR and aPTT. • Serum chemistry includes measurement of AST, ALT, alkaline phosphatase, total bilirubin, creatinine, creatine kinase, urea, glucose, calcium, sodium, potassium, magnesium, total protein, albumin, bicarbonate, LDH (LDH-5), blood urea nitrogen, chloride, and phosphate. • Urinalysis includes color, appearance, specific gravity, pH, protein, glucose, ketones, blood, leukocyte esterase, nitrite, bilirubin, urobilinogen and microscopy of sediment\nMuscular strength tests, assessed by hand held dynamometer, will be conducted at Screening, Days −1 and 7 of each period and at Follow-up. Proximal and distal muscle groups will be evaluated."}, "GAA [4]": {"biological_target": "T1, GAA", "experiment": "Stability of rhGAA activity in human blood", "format": "in vitro ADME", "set-up": "purchased Genzyme Corporation", "settings": "presence of 1-deoxynojirimycin hydrochloride; 24 hour period", "text": "1-deoxynojirimycin hydrochloride stabilizes rhGAA in vitro and in vivo."}}, "data": [{"smiles": "OC[C@H]1NC[C@H](O)[C@@H](O)[C@@H]1O", "note": "[AT2220, (2R,3R,4R,5S)-2-hydroxymethyl-piperidine-3,4,5-triol]", "values": [{"measurement": "total plasma rhGAA protein by Western blot", "setting": "GAA [1]", "value": "dose-related increases"}, {"measurement": "change in GAA enzyme activity in muscle", "setting": "GAA [2]; Cohort 1 (50 mg), day 7", "value": "no consistent change"}, {"measurement": "increase in muscle rhGAA activity relative to rhGAA alone, individual patients", "setting": "GAA [2]; Cohort 1, 50 mg AT2220", "value": "no change"}, {"measurement": "increase in muscle rhGAA activity relative to rhGAA alone, individual patients", "setting": "GAA [2]; Cohort 2, 100 mg AT2220", "value": "no change"}, {"measurement": "GAA enzyme uptake into muscle tissue vs ERT alone", "setting": "GAA [2]; Cohorts 2, 3 and 4 (100, 250, 600 mg)", "value": "more enzyme is taken up into muscle tissue"}, {"measurement": "Adverse event: Intensity", "setting": "[3]; Cohort 1 (50 mg 1-DNJ-HCl)", "value": "Mild"}, {"measurement": "Adverse event: Relation to Study Drug?", "setting": "[3]; Cohort 1 (50 mg 1-DNJ-HCl)", "value": "Unrelated"}, {"measurement": "Adverse event: Was Event Serious?", "setting": "[3]; Cohort 1 (50 mg 1-DNJ-HCl)", "value": "No"}, {"measurement": "ALT/AST", "setting": "[3]; Cohort 1 (50 mg), 4 subjects", "value": "No drug related elevations"}, {"measurement": "CPK", "setting": "[3]; Cohort 1 (50 mg), 4 subjects", "value": "no drug related elevations beyond subjects' baseline values range"}, {"measurement": "Muscle strength", "setting": "[3]; Cohort 1 (50 mg), 4 subjects", "value": "No change between Periods 1 and 2"}, {"measurement": "SAE / drug-related AEs", "setting": "[3]; Cohort 1 (50 mg), 4 subjects", "value": "No SAE or drug-related AEs"}, {"measurement": "Urine Hex4", "setting": "[3]; Cohort 1 (50 mg), 4 subjects", "value": "no drug related elevations"}, {"measurement": "Adverse event: Intensity", "setting": "[3]; Cohort 2 (100 mg 1-DNJ-HCl)", "value": "Mild"}, {"measurement": "Adverse event: Relation to Study Drug?", "setting": "[3]; Cohort 2 (100 mg 1-DNJ-HCl)", "value": "Unrelated"}, {"measurement": "Adverse event: Was Event Serious?", "setting": "[3]; Cohort 2 (100 mg 1-DNJ-HCl)", "value": "No"}, {"measurement": "ALT/AST", "setting": "[3]; Cohort 2 (100 mg), 5 subjects", "value": "No drug related elevations"}, {"measurement": "CPK", "setting": "[3]; Cohort 2 (100 mg), 5 subjects", "value": "no drug related elevations beyond subjects' baseline range"}, {"measurement": "Hex4", "setting": "[3]; Cohort 2 (100 mg), 5 subjects", "value": "no drug related elevations"}, {"measurement": "Muscle strength", "setting": "[3]; Cohort 2 (100 mg), 5 subjects", "value": "No change between Periods 1 and 2"}, {"measurement": "SAE / drug-related AEs", "setting": "[3]; Cohort 2 (100 mg), 5 subjects", "value": "No SAE or drug-related AEs"}, {"measurement": "Adverse Event", "setting": "[3]; Cohort 2 (rhGAA alone, then rhGAA + 100 mg 1-DNJ-HCl), per patient", "value": "None"}, {"measurement": "CPK levels", "setting": "[3]; Cohorts 1 and 2", "value": "did not appreciably change from baseline"}, {"measurement": "relation of reported adverse events to drug", "setting": "[3]; Cohorts 1 and 2, only mild, transient adverse events reported", "value": "none of which were related to AT2220"}, {"measurement": "urine hex 4 levels", "setting": "[3]; following a single dose of AT2220, Cohorts 1 and 2", "value": "either did not change from baseline, or did not show any consistent trend"}, {"measurement": "tolerability", "setting": "[3]; single doses co-administered with ERT, Cohorts 1-4 (50-600 mg)", "value": "well-tolerated, with no drug-related adverse events reported"}, {"measurement": "safety and tolerability", "setting": "[3]; single doses of 50 mg and 100 mg, patients with Pompe Disease", "value": "safe and well-tolerated"}, {"measurement": "loss of rhGAA enzymatic activity in human blood", "setting": "GAA [4]", "value": "no measurable loss in enzymatic activity"}]}]}
